{"source": "patent US11717536B2", "about": "“Treatment for periodontitis” (THE UNIVERSITY OF MELBOURNE, priority 2017, dated 2023)", "key": {"[1]": {"tested_on": "Leptotrichia wadei", "experiment": "Clinical trial: plaque microbial analysis, Leptotrichia wadei", "assay_type": "in vivo", "settings": "18.8 mg CPP-ACP sugar-free gum, 20 min six times per day, 14 days, vs no gum chewing; supragingival plaque", "excerpt": "(§1) Following the completion of the examination and supragingival plaque collection, participants received a supragingival scaling, clean and prophylaxis of all their teeth. At the completion of the last examination for leg 3, each participant received a professional fluoride treatment.\n(§2) Participants had all supragingival plaque collected from the buccal surfaces of their maxillary molars (teeth 17, 16, 26 & 27) with a sterile scaling instrument. The plaque samples from each tooth were placed in separate sterile tubes, to give four samples per participant.\n(§3) Genomic DNA was extracted from the plaque using a combination of mechanical disruption of the cells via a Precellys homogeniser and the chemical extraction and purification of the genomic DNA via the PowerLyzer PowerSoil DNA Isolation Kit (MoBio). Quantitation of the extracted DNA was achieved using a Qubit dsDNA High Sensitivity Assay kit (ThermoFisher), before 5 ng DNA was used as template in a PCR reaction that amplified the V4 variable region of the 16S ribosomal RNA gene and individually barcoded the PCR product from each sample. The barcoded DNA was then sequenced using an Ion Torrent Personal Genome machine and Torrent Suite™ Software (ThermoFisher).\n(§4) Analysis of the resulting sequence of the 16S ribosomal RNA gene enabled identification of the bacterial population present in each sample, down to the species level. […]"}, "[2]": {"tested_on": "Fusobacterium nucleatum (ATCC 10953)", "experiment": "Six species polymicrobial biofilm in constant-depth film fermenter, species composition: F. nucleatum", "assay_type": "cell-based", "description": "To model supragingival plaque six representative oral bacterial species, Streptococcus sanguinis (NCTC 7863), Streptococcus mutans Ingbritt, Actinomyces naeslundii (NCTC 10301), Veillonella parvula (ATCC 17745), Lactobacillus casei (NCDO 161) and Fusobacterium nucleatum (ATCC 10953) (Table 5) were cultured as a polymicrobial biofilm on a human enamel substratum in a constant-depth film fermenter (CDFF; Cardiff University, UK). The CDFF was housed in a 37° C. incubator under anaerobic conditions which were maintained by a constant flow of 5% CO2 in N2 at 1 L/h. The CDFF contained 15 removable polytetrafluoroethylene (PTFE) pans on a circular platform that was rotated at a constant speed of three rpm. The biofilms were grown on three enamel blocks (see below) in each PTFE pan using an artificial saliva medium (ASM, 2.5 g/L mucin type II (porcine, gastric, Sigma), 2.0 g/L bacteriological peptone (Oxoid), 2.0 g/L tryptone (Oxoid), 1.0 g/L yeast extract (Oxoid), 0.35 g/L NaCl, 0.2 g/L KCl, 0.2 mg/L vitamin K, 1 mg/L haemin and 0.1 g/L cysteine hydrochloride) at a constant flow rate of 30 mL/h. Prior to inoculation, the CDFF pan surfaces were conditioned for 24 h with ASM at a flow rate of 10 mL/h (McBain et al (2003) J Appl Microbiol. 94(4):655-66). In order to mimic in vivo bacterial growth conditions in the oral cavity with dietary sugar intake and to provide a high cariogenic challenge, a 1% (w/v) sucrose solution in ASM was pumped into the CDFF four times a day at four hourly intervals with a flow rate of 30 mL/h for 10 min.\nThree treatments were applied to the polymicrobial biofilms: 290 ppm fluoride with 220 ppm fluoride as SnF2 and 70 ppm fluoride as NaF (referred to as SnF2), 2% CPP-ACP and 2% CPP-ACP-SnF2. These treatments were compared with the control in which the test solution was replaced with ASM. Each treatment was applied using two 10 min pulses of the test solution in ASM with a flow rate of 30 mL/h. The first pulse started 30 min prior to the first sucrose pulse of the morning and the second started 3 h 30 min after the final sucrose pulse of the day.\nOn day 6, 12 and 19 after inoculation four pans were removed aseptically from the CDFF and replaced with blank sterile pans. Enamel blocks from the pans were removed for bacterial enumeration and transverse microradiography.\nPlanktonic and loosely attached bacterial cells were firstly removed from the enamel blocks by light washing with 100 μL ASM. To harvest the biofilm cells on each block, the surface was scraped with a sterile scraper with 1 mL of ASM. The biofilm bacterial cells were sedimented by centrifugation (10,000 g, 10 min), the supernatant carefully decanted and the cell pellets stored at −80° C. until required for DNA extraction. The enamel blocks were then used for sectioning and microradiography.\nFor each timepoint, DNA was extracted separately from 8-9 enamel blocks using PowerLyzer® PowerSoil® DNA Isolation Kits (MoBio Laboratories) following the manufacturers “Vacuum Protocol” with a Precellys® bead homogeniser (Bertin Technologies). Samples were quantified using a Qubit™ dsDNA HS assay kit (Life Technologies) before being stored at −80° C.\nThe Ion Amplicon Library Preparation Fusion Method (Thermo Fisher Scientific), was adapted for amplification of the V4 region of the 16S rRNA gene. […]"}, "[3]": {"tested_on": "Lautropia mirabilis", "experiment": "Clinical trial: plaque microbial analysis, Lautropia mirabilis", "assay_type": "in vivo", "settings": "18.8 mg CPP-ACP sugar-free gum, 20 min six times per day, 14 days, vs no gum chewing; supragingival plaque", "excerpt": "as §1, §2, §3, §4"}}, "note": "“Also recorded” adds a separate entry of the source.", "data": [{"substance": "Casein phosphopeptide-amorphous calcium phosphate [CPP-ACP]", "values": [{"measurement": "% decrease in relative abundance, Leptotrichia wadei", "setting": "[1]", "result": "91% (p < 0.001)"}, {"measurement": "F. nucleatum as a percentage of total bacteria in the biofilm", "setting": "[2]; 19 days, mean ± standard deviation, n = 5-21", "result": "2.43 ± 1.21^ace %"}, {"measurement": "change in abundance of F. nucleatum after treatment relative to the control (increase)", "setting": "[2]; day 19, FIG. 5B", "result": 355, "unit": "%"}, {"measurement": "change in abundance of F. nucleatum relative to the control (in words)", "setting": "[2]; twice daily treatment, day 19", "result": "significantly increased; also recorded: reproducible increases"}, {"measurement": "% decrease in relative abundance, Lautropia mirabilis", "setting": "[3]", "result": "70% (p < 0.05)"}]}]}
